Assay results reported in BigSolDB 2.1.

NC(=O)c1cnccn1
solubility (mole fraction) (in acetone, 278.15 K): 0.00249 | solubility (mole fraction) (in acetone, 283.15 K): 0.00304 | solubility (mole fraction) (in acetone, 288.15 K): 0.00357 | solubility (mole fraction) (in acetone, 293.15 K): 0.00424 | solubility (mole fraction) (in acetone, 298.15 K): 0.00495 | solubility (mole fraction) (in acetone, 303.15 K): 0.00574 | solubility (mole fraction) (in acetone, 308.15 K): 0.00674 | solubility (mole fraction) (in acetone, 313.15 K): 0.00784 | solubility (mole fraction) (in acetone, 318.15 K): 0.00897 | solubility (mole fraction) (in acetone, 323.15 K): 0.00975 | solubility (mole fraction) (in acetonitrile, 278.15 K): 0.00125 | solubility (mole fraction) (in acetonitrile, 283.15 K): 0.00162 | solubility (mole fraction) (in acetonitrile, 288.15 K): 0.00205 | solubility (mole fraction) (in acetonitrile, 293.15 K): 0.00248 | solubility (mole fraction) (in acetonitrile, 298.15 K): 0.00294 | solubility (mole fraction) (in acetonitrile, 303.15 K): 0.00351 | solubility (mole fraction) (in acetonitrile, 308.15 K): 0.0042 | solubility (mole fraction) (in acetonitrile, 313.15 K): 0.00497 | solubility (mole fraction) (in acetonitrile, 318.15 K): 0.0058 | solubility (mole fraction) (in acetonitrile, 323.15 K): 0.00633 | solubility (mole fraction) (in ethyl acetate, 278.15 K): 0.0016 | solubility (mole fraction) (in ethyl acetate, 283.15 K): 0.00219 | solubility (mole fraction) (in ethyl acetate, 288.15 K): 0.0024 | solubility (mole fraction) (in ethyl acetate, 293.15 K): 0.00312 | solubility (mole fraction) (in ethyl acetate, 298.15 K): 0.0035 | solubility (mole fraction) (in ethyl acetate, 303.15 K): 0.00416 | solubility (mole fraction) (in ethyl acetate, 308.15 K): 0.00475 | solubility (mole fraction) (in ethyl acetate, 313.15 K): 0.00581 | solubility (mole fraction) (in ethyl acetate, 318.15 K): 0.00666 | solubility (mole fraction) (in ethyl acetate, 323.15 K): 0.00775 | solubility (mole fraction) (in isopropanol, 278.15 K): 0.000619 | solubility (mole fraction) (in isopropanol, 283.15 K): 0.000973 | solubility (mole fraction) (in isopropanol, 288.15 K): 0.00136 | solubility (mole fraction) (in isopropanol, 293.15 K): 0.00181 | solubility (mole fraction) (in isopropanol, 298.15 K): 0.00224 | solubility (mole fraction) (in isopropanol, 303.15 K): 0.00279 | solubility (mole fraction) (in isopropanol, 308.15 K): 0.00365 | solubility (mole fraction) (in isopropanol, 313.15 K): 0.00466 | solubility (mole fraction) (in isopropanol, 318.15 K): 0.00574 | solubility (mole fraction) (in isopropanol, 323.15 K): 0.00692 | solubility (mole fraction) (in methanol, 278.15 K): 0.00208 | solubility (mole fraction) (in methanol, 283.15 K): 0.00265 | solubility (mole fraction) (in methanol, 288.15 K): 0.00328 | solubility (mole fraction) (in methanol, 293.15 K): 0.00384 | solubility (mole fraction) (in methanol, 298.15 K): 0.0047 | solubility (mole fraction) (in methanol, 303.15 K): 0.00563 | solubility (mole fraction) (in methanol, 308.15 K): 0.0071 | solubility (mole fraction) (in methanol, 313.15 K): 0.00828 | solubility (mole fraction) (in methanol, 318.15 K): 0.01 | solubility (mole fraction) (in n-butanol, 278.15 K): 0.000772 | solubility (mole fraction) (in n-butanol, 283.15 K): 0.00116 | solubility (mole fraction) (in n-butanol, 288.15 K): 0.00148 | solubility (mole fraction) (in n-butanol, 293.15 K): 0.00192 | solubility (mole fraction) (in n-butanol, 298.15 K): 0.00237 | solubility (mole fraction) (in n-butanol, 303.15 K): 0.00309 | solubility (mole fraction) (in n-butanol, 308.15 K): 0.00396 | solubility (mole fraction) (in n-butanol, 313.15 K): 0.00512 | solubility (mole fraction) (in n-butanol, 318.15 K): 0.00623 | solubility (mole fraction) (in n-butanol, 323.15 K): 0.00731 | solubility (mole fraction) (in n-propanol, 278.15 K): 0.000775 | solubility (mole fraction) (in n-propanol, 283.15 K): 0.00123 | solubility (mole fraction) (in n-propanol, 288.15 K): 0.00145 | solubility (mole fraction) (in n-propanol, 293.15 K): 0.00179 | solubility (mole fraction) (in n-propanol, 298.15 K): 0.00245 | solubility (mole fraction) (in n-propanol, 303.15 K): 0.00297 | solubility (mole fraction) (in n-propanol, 308.15 K): 0.00394 | solubility (mole fraction) (in n-propanol, 313.15 K): 0.00503 | solubility (mole fraction) (in n-propanol, 318.15 K): 0.00616 | solubility (mole fraction) (in n-propanol, 323.15 K): 0.00707 | solubility (mole fraction) (in sec-butanol, 278.15 K): 0.00053 | solubility (mole fraction) (in sec-butanol, 283.15 K): 0.00081 | solubility (mole fraction) (in sec-butanol, 288.15 K): 0.00108 | solubility (mole fraction) (in sec-butanol, 293.15 K): 0.0015 | solubility (mole fraction) (in sec-butanol, 298.15 K): 0.00188 | solubility (mole fraction) (in sec-butanol, 303.15 K): 0.00252 | solubility (mole fraction) (in sec-butanol, 308.15 K): 0.00332 | solubility (mole fraction) (in sec-butanol, 313.15 K): 0.00434 | solubility (mole fraction) (in sec-butanol, 318.15 K): 0.00564 | solubility (mole fraction) (in sec-butanol, 323.15 K): 0.00696 | solubility (mole fraction) (in water, 278.15 K): 0.00105 | solubility (mole fraction) (in water, 283.15 K): 0.00131 | solubility (mole fraction) (in water, 288.15 K): 0.00168 | solubility (mole fraction) (in water, 293.15 K): 0.00194 | solubility (mole fraction) (in water, 298.15 K): 0.0024 | solubility (mole fraction) (in water, 303.15 K): 0.00284 | solubility (mole fraction) (in water, 308.15 K): 0.00362 | solubility (mole fraction) (in water, 313.15 K): 0.00421 | solubility (mole fraction) (in water, 318.15 K): 0.00521 | solubility (mole fraction) (in water, 323.15 K): 0.006
